Results from patent US11840531B2, “CDK8/19 inhibitors” (JOINT STOCK COMPANY “BIOCAD”, priority 2018, dated 2023).

Legend:
[1] = Enzyme stability in human liver microsomes (Phase I); type: in vitro ADME; conditions: pH 7.4; 0.5 mg/mL pooled human liver microsomes, 10 μM compound, 37° C.
Protocol: Measuring of enzyme stability of the present compounds enabled estimation of their stability towards the action of Phase I biotransformation enzymes.
The rate of enzymatic decomposition of a compound was detected by incubating the reaction mixture in a dry block heater at 37° C.; the reaction mixture contained 0.5 mg/mL of pooled human liver microsomes (XenoTech, USA, cat #H6010), 10 μM of a compound, 2 mM β-nicotinamide adenine dinucleotide (Carbosynth, UK, cat #NN10871) and 4 mM of magnesium chloride in 0.1M sodium phosphate buffer (pH=7.4). The reaction was quenched with acetonitrile (100 μL of acetonitrile/100 μL of the reaction mixture). After quenching, the samples were centrifuged at 10000 rpm for 10 minutes. Supernatant fluid was tested by chromatographic technique using Agilent1200 (Agilent, USA). Chromatographic analysis was performed in a gradient elution regime with a flow rate of 1 mL/min. A graph of the logarithm of substance's peak area as a function of time was made. The dependent factor of the line corresponded to the elimination rate constant K based on which the drug's half-lif½e T and degradation rate CLint were calculated:
Based on the data obtained, candidates' enzyme stability in human liver microsomes was determined.

[2] = Enzyme stability in human liver S9 fractions (Phase II); type: in vitro ADME; conditions: pH 7.4; 0.5 mg/mL pooled human liver S9 fractions, 10 μM compound, 37° C.; read-out: Enzyme stability Liver S9 fraction CLint
Protocol: Measuring of enzyme stability of the present compounds enabled estimation of their stability towards the action of Phase II biotransformation enzymes.
Enzyme degradation rate was measured by incubating the reaction mixture in a dry block thermostat at 37° C., said reaction mixture comprising 0.5 mg/mL of pooled human liver S9 fractions (XenoTech, USA, cat #H0610), 10 μM compound, 2 mM β-nicotinamide adenine dinucleotide (Carbosynth, UK, cat #NN10871) and 4 mM magnesium chloride in 0, 1 M sodium-phosphate buffer, pH=7, 4. The reaction was quenched with acetonitrile (100 μL of acetonitrile/100 μL of the reaction mixture). After quenching, the samples were centrifuged at 10000 rpm for 10 minutes. Supernatant fluid was tested by chromatographic technique using Agilent1200 (Agilent, USA). Chromatographic analysis was performed in a gradient elution regime with a flow rate of 1 mL/min A graph of the logarithm of substance's peak area as a function of time was made. The dependent factor of the line corresponded to the elimination rate constant K based on which the drug's half-life T½ and degradation rate CLint were calculated:
Based on the data obtained, candidates' enzyme stability in human liver S9 fractions was determined.

KG-1 cells = assay: Antiproliferative activity, KG-1 cells (AlamarBlue); type: cell-based; conditions: Homo sapiens, KG-1, 120 h, 120 h incubation
Protocol: Antiproliferative activity of CDK8 inhibitors according to the present invention was measured in a cell-based test on continuous cell cultures MV4-11 (biphenotypic myelomonocytic leukemia, ATCC® CRL-9591™), KG-1 (acute myeloid leukemia, ATCC® CCL-246™) using a vital stain AlamarBlue (ThermoFisher, #DAL1100). The cells were grown in RPMI-1640 (PanEco, #C330p) medium with addition of 10% FBS (Gibco, #16140-071); washed and resuspended in culture medium with 10% FBS (Gibco, #16140-071) in 96-well culture plates (Corning, #3599) with ≈10×10^3 cells in […] of medium per well. The compounds in question were dissolved in DMSO and diluted with a medium with 10% FBS (Gibco, #16140-071) to a final concentration ranging from 0 to 100 μM. […] of diluted compounds were then added to each well (final DMSO concentration was less than 1%) and incubated under 5% CO2 atmosphere at 37° C. for 120 h. After incubating, 15 μL/well of AlamarBlue (ThermoFisher, #DAL1100) reagent was added, contents of plates were mixed in an orbital shaker (Biosan, Latvia) and further incubated for 3-5 h at 37° C. under 5% CO2 atmosphere. Number of living cells was estimated using a microplate spectrophotometer (Tecan Infinite M200Pro, Switzerland) measuring fluorescent signal at the excitation wavelength (λEx) of 540 nm and emission wavelength (λEm) of 590 nm.
IC50 values were calculated using Magellan 7.2 software (Tecan, Switzerland) approximating experimental points by four-parameter logistic model with the optimization by Levenberg-Marquardt (Table 6).

[3] = General cytotoxicity on HepG2 cells; type: cell-based; conditions: human, 72 h incubation
Protocol: The CC50 values were determined in the test for General cytotoxicity On HepG2 cells (hepatocellular carcinoma, ATCC® HB-8065™). Cells per well were seeded in 96-well plates (Corning, #3599) at a concentration ≈20×10^3 cells in 100 μL of medium and incubated for 72 h with added compounds within the range of concentrations of 200 to 0.78 μM. Cell viability was assessed using the above method.

| SMILES | microsomal CLint at 10 μM [1] | microsomal CLint at 10 μM [2] | IC50 (KG-1 cells) | CC50 at 72 h [3] |
| --- | --- | --- | --- | --- |
| COCCn1cc(-c2ccc(-c3cnc(N)c4ncc(C(=O)NCC5CC5)cc34)cc2)cn1 [Compound 3.45, 8-amino-N-(cyclopropylmethyl)-5-(4-(1-(2-methoxyethyl)-1H-pyrazole-4-yl)phenyl)-1,7-naphthyridine-3-carboxamide] | 39.6 µL/min/mg | 1.1 µL/min/mg | 0.1 nM | 17400 nM |
| COCCn1cc(-c2ccc(-c3cnc(N)c4ncc(C(=O)NC5CC5)cc34)cc2)cn1 [Compound 3.48] | 18 µL/min/mg | 2.5 µL/min/mg | 2.7 nM | 31800 nM |
| CN(C)C(=O)Cn1cc(-c2ccc(-c3cnc(N)c4ncc(C(=O)N5CCC5)cc34)cc2)cn1 [Compound 3.52, 2-(4-(4-(8-amino-3-(azetidine-1-carbonyl)-1,7-naphthyridine-5-yl)phenyl)-1H-pyrazole-1-yl)-N,N-dimethylacetamide] | 7 µL/min/mg | 2.4 µL/min/mg | 1.2 nM | > 100000 nM |
